# In article PMC8496750, “Identification of the organic anion transporting polypeptides responsible for the hepatic uptake of the major metabolite of epyrifenacil, S‐3100‐CA, in mice” (Pharmacology Research & Perspectives, 2021):
# Experiments:
# human OATP1B1 = molecular target: T1, human OATP1B1 (Homo sapiens, UniProt Q9Y6L6); test: Inhibition of S‐3100‐CA uptake by OATP inhibitors, human OATP1B1; type: in vitro ADME; settings: inhibitor at 100 μM
# T1 construct: expressed in transfected cells; host or cells: 293FT cells
# T1 sequence (Q9Y6L6 1-691): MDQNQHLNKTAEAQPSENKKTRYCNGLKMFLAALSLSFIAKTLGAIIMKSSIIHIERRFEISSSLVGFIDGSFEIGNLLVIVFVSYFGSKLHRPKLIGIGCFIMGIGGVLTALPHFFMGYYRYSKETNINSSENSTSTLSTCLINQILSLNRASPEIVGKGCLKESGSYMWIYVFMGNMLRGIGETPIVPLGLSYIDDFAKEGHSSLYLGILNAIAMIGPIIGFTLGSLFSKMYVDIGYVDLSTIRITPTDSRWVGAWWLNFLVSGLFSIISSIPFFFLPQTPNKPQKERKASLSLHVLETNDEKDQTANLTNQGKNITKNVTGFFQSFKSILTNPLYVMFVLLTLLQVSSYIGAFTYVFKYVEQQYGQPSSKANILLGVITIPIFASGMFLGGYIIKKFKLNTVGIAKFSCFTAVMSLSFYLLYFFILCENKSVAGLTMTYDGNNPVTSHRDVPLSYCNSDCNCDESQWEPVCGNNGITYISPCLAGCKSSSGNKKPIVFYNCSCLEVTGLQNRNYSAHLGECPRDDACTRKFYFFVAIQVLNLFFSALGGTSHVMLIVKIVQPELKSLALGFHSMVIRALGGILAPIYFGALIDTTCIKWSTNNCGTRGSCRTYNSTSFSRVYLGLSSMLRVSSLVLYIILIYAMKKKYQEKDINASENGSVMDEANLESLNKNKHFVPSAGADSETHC
# Protocol: 293FT cells were purchased from Thermo Fisher Scientific, Inc.. The cells were grown in Dulbecco's modified Eagle medium (supplemented with 4.5 g/L glucose and 2 mM L‐glutamine) at 37°C, 5% CO2, and 95% humidity. The cells were passaged 3 times per week by harvesting cells using trypsin and plating at a density of 1.0 × 10^4 cells/cm^2 in a 10 cm cell culture plate for maintenance culture. The 293FT cells were detached using trypsin and re‐seeded at a density of 2.5 × 10^4 cells/cm^2 in BioCoat™ Collagen I 6‐well plates (Corning Inc.) for transfection and then treated with 1.2 μg of plasmid vector and 3.2 μl of Lipofectamine™ 2000 Transfection Reagent (Thermo Fisher Scientific, Inc.) according to the manufacturer's instructions. After a 3‐h treatment, the transfection medium was replaced with a fresh cell culture medium and incubated at 37°C with 95% humidity and 5% CO2 until ready for the assay.
# Transport experiments were conducted approximately 24 h post‐transfection. […] From the lysate, 1.0 ml was transferred to a vial containing 10 ml of Emulsifier Scintillator Plus to measure the radioactivity in the LSC. The protein concentration of the cell lysate was also measured using a Pierce™ BCA Protein Assay Kit (Thermo Fisher Scientific, Inc.), which was used to normalize, according to the cell number, the radioactivity in the cell lysate extract. […]
# mouse Oatp1a4 = molecular target: T2, mouse Oatp1a4 (Mus musculus, UniProt Q9EP96); settings: inhibitor at 100 μM
# T2 sequence (Q9EP96 1-670): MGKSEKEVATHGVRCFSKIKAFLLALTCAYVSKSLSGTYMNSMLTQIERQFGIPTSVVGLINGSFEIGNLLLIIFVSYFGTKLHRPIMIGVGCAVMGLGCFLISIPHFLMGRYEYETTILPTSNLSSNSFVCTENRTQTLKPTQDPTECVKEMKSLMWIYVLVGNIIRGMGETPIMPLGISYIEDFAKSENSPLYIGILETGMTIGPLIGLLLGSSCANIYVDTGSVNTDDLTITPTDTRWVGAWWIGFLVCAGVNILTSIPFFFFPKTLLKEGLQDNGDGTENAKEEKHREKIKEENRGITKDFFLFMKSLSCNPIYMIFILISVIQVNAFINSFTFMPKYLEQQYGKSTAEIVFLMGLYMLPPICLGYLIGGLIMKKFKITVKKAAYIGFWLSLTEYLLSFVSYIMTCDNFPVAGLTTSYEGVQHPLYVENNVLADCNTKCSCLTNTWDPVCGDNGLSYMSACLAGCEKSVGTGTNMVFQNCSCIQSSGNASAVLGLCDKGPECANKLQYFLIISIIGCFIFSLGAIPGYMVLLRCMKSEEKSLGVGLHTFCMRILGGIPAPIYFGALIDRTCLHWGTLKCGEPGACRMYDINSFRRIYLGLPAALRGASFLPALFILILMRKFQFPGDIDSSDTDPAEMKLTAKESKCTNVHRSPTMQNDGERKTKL
# Protocol: Transport experiments were conducted approximately 24 h post‐transfection. The experiments were initiated by aspirating culture medium and addition of pre‐warmed radiolabeled substrate solution (final 1.0% of acetonitrile or 0.9% of ethanol in phosphate‐buffered saline (PBS[−])) to each well. After a 10‐min incubation, cells were washed twice with 1 ml of ice‐cold PBS(−) and lysed with 700 μl of 1.0 M NaOH for 3 h or more at room temperature. The lysate was transferred to a 1.5‐ml tube, and neutralized with 350 μl of 2.0 M HCl and 350 μl of 2.0% sodium dodecyl sulfate (SDS) solution. From the lysate, 1.0 ml was transferred to a vial containing 10 ml of Emulsifier Scintillator Plus to measure the radioactivity in the LSC. The protein concentration of the cell lysate was also measured using a Pierce™ BCA Protein Assay Kit (Thermo Fisher Scientific, Inc.), which was used to normalize, according to the cell number, the radioactivity in the cell lysate extract. The protein assay was performed in duplicate. Each sample type was assayed in triplicate wells, and each run was performed twice. […] Each sample type was assayed in triplicate wells.
# mitochondrial PPO = test system: mitochondrial PPO; parameters: method as in PMID 34908893; settings: cited from earlier work
# [1] = parameters: method as in PMID 34908893; settings: mice; 90‐day; cited from earlier work
smiles,measurement,setting,value
"CO[C@H]1/C=C/O[C@@]2(C)Oc3c(C)c(O)c4c(O)c(c(/C=N/N5CCN(C)CC5)c(O)c4c3C2=O)NC(=O)/C(C)=C\C=C\[C@H](C)[C@H](O)[C@@H](C)[C@@H](O)[C@@H](C)[C@H](OC(C)=O)[C@@H]1C [RIF, Rifampicin]","Uptake of S‐3100‐CA, % of that by vehicle‐treated cells",human OATP1B1,less than 40%
same,"Uptake of S‐3100‐CA, % of that by vehicle‐treated cells",mouse Oatp1a4,less than 40%
Cn1c(C(F)(F)F)cc(=O)n(-c2cc(Oc3cccnc3OCC(=O)O)c(Cl)cc2F)c1=O [S‐3100‐CA],PPO inhibitory activity (in words),mitochondrial PPO; PPO inhibition study,comparable inhibitory activity to that of the parent epyrifenacil
same,"Inhibitory activity against mitochondrial PPO, mice relative to humans",mitochondrial PPO; higher in mice than in humans,10 times
"CCOC(=O)COc1ncccc1Oc1cc(-n2c(=O)cc(C(F)(F)F)n(C)c2=O)c(F)cc1Cl [Epyrifenacil, ethyl[(3‐{2‐chloro‐4‐fluoro‐5‐[3‐methyl‐2,6‐dioxo‐4‐(trifluoromethyl)‐3,6‐dihydropyrimidin‐1(2H)‐yl]phenoxy}pyridin‐2‐yl)oxy]acetate]",Hepatocyte injury,[1],produced hepatocyte injury
